Results from patent publication US9169241B2, “Quinolinyloxyphenylsulfonamides” (Max-Planck-Gesellschaft Zur Forderung der Wissenschaften …, priority 2009, dated 2015).
Where two headings read alike, the source gives them in different places.

Experiments:
[1] = tested on: Hs578T; experiment: Cell vitality assay (ATP assay, CellTiter-Glo); assay type: cell-based; conditions: Homo sapiens, Hs-578T, 72 h
Summary of the method: (§1)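 Cells (1000/well) incubated 72 h with test compound, top dose 12.5 μM, twofold dilutions, DMSO as reference. Lysis reagent added, luminescence recorded; background from cell-free medium wells.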

[2] = tested on: SF126; experiment: Cell vitality assay (ATP assay, CellTiter-Glo); assay type: cell-based; conditions: Homo sapiens, SF-126
Summary of the method: as §1

[3] = tested on: SF763; experiment: Cell vitality assay (ATP assay, CellTiter-Glo); assay type: cell-based; conditions: SF763, 72 h; Table IIa; read-out: IC50 ATP-Assay after 72 h SF763
Summary of the method: as §1

[4] = tested on: U118; experiment: Cell vitality assay (ATP assay, CellTiter-Glo); assay type: cell-based
Summary of the method: as §1

[5] = tested on: U138; experiment: Cell vitality assay (ATP assay, CellTiter-Glo); assay type: cell-based; conditions: U138, 72 h; Table IIa; read-out: IC50 ATP-Assay after 72 h U138
Summary of the method: as §1

[6] = tested on: Hs578T; experiment: Wound healing migration assay; assay type: cell-based; conditions: Homo sapiens, Hs-578T; HS578T cell line; Table Ib
Summary of the method: (§2)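 Cells seeded at 150000/24 well, grown to monolayer overnight, scratched with a pipette tip, then treated with compound at 12.5, 6.25 or 3.125 μM versus DMSO. Stopped by crystal violet fixation at 48-72 h once control wounds closed; IC50 taken as 50% wound size between t0 and t48 or t72.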

[7] = tested on: indicated cell line; experiment: Wound healing migration assay (Table IV); assay type: cell-based; conditions: compounds at 12.5, 6.25, 3.125 μM, 48 h-72 h
Summary of the method: as §2

[8] = tested on: A172; experiment: Matrigel outgrowth assay/branching assay; assay type: cell-based; conditions: Homo sapiens, A 172, Table Vb, read-out: Total branching inhibition in Matrigel A172
Summary of the method: (§3)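 Read-out: microscopic images of invasive branching structures at 48 h, 72 h and 96 h. Cells sat on a 3 mg/ml Matrigel layer (set 1 h, 37° C) with compound at 3.125, 1.56 and 0.78 μM or DMSO. A concentration counts as positive only with complete branching inhibition.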

[9] = tested on: Hs578T; experiment: Matrigel outgrowth assay/branching assay; assay type: cell-based; conditions: Homo sapiens, Hs-578T; HS578T cell line; Table Ib; read-out: Total branching inhibition in Matrigel HS578T
Summary of the method: as §3

[10] = tested on: SF126; experiment: Matrigel outgrowth assay/branching assay; assay type: cell-based; conditions: Homo sapiens, SF-126, Table Vb, read-out: Total branching inhibition in Matrigel SF126
Summary of the method: as §3

[11] = tested on: U118; experiment: Matrigel outgrowth assay/branching assay; assay type: cell-based; conditions: Table Vb, read-out: Total branching inhibition in Matrigel U118
Summary of the method: as §3

[12] = tested on: cells; experiment: Boyden chamber migration assay (Table VI); assay type: cell-based; conditions: Homo sapiens, Hs-578T, 16 h, Hs578T cells; 16 h migration
Summary of the method: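 20000 cells seeded in the upper compartment in 0% FCS plus 0.1% BSA and left 16 h to migrate through […] membrane toward 10% FCS medium below. Non-migrated cells swabbed off; cells on the filter underside fixed and counted.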

[13] = HS578T cell line, Table Ib, read-out: IC50 ATP-Assay HS578T after 72 h
[14] = Hs578T, Table IIa, read-out: IC50 ATP-Assay after 72 h Hs578T
[15] = SF126, 72 h, Table IIa, read-out: IC50 ATP-Assay after 72 h SF126
[16] = U118, 72 h, Table IIa, read-out: IC50 ATP-Assay after 72 h U118
[17] = Homo sapiens, A 172, A172 cells, read-out: IC50 Wound healing Assay A172
[18] = Homo sapiens, SF-126, SF126 cells, read-out: IC50 Wound healing Assay SF126
[19] = Homo sapiens, C8161 cells, read-out: IC50 Wound healing Assay C8161
[20] = SF763 cells, read-out: IC50 Wound healing Assay SF763
[21] = U118 cells, read-out: IC50 Wound healing Assay U118

Row | SMILES | IC50 [1, 13] | IC50 [1, 14] | IC50 [2, 15] | IC50 ([2]; cell vitality assay, SF126, Table IIb, read-out: IC50 SF126) | IC50 [3] | IC50 [4, 16] | IC50 ([4]; cell vitality assay, U118, Table IIc, read-out: IC50 U118) | IC50 [5] | IC50 [6] | IC50 [7, 17] | IC50 [7, 18] | IC50 [7, 19] | IC50 [7, 20] | IC50 [7, 21] | IC100 [8] | IC50 [9] | IC100 [10] | IC100 [11] | melting point | IC50 [12]
1 | COc1cc2c(Oc3ccc(NS(=O)(=O)c4cc(F)ccc4F)cc3F)ccnc2cc1OCCCN1CCCCC1 [Example 1, 2,5-Difluoro-N-{3-fluoro-4-[6-methoxy-7-(3-piperidin-1-yl-propoxy)-quinolin-4-yloxy]-phenyl}-benzenesulfonamide] | ≤ 12.5 µM | 12.5 to 50 µM | ≤ 12.5 µM | ≤ 12.5 µM | ≤ 12.5 µM | ≤ 12.5 µM | ≤ 12.5 µM | ≤ 12.5 µM | ≤ 12.5 µM | ≤ 12.5 µM | ≤ 12.5 µM | ≤ 12.5 µM | ≤ 12.5 µM | ≤ 12.5 µM | ≤ 12.5 µM | ≤ 10 µM | ≤ 12.5 µM | ≤ 12.5 µM | 206 to 208 °C | 
2 | COc1cc2c(Oc3ccc(NS(=O)(=O)c4ccccc4[N+](=O)[O-])cc3F)ccnc2cc1OCCCN1CCCCC1 [Example 7, N-{3-Fluoro-4-[6-methoxy-7-(3-piperidin-1-yl-propoxy)-quinolin-4-yloxy]-phenyl}-2-nitro-benzenesulfonamide] | ≤ 12.5 µM | ≤ 12.5 µM | 12.5 to 50 µM |  | ≤ 12.5 µM | 12.5 to 50 µM |  | ≤ 12.5 µM | ≤ 12.5 µM | ≤ 12.5 µM | ≤ 12.5 µM | ≤ 12.5 µM | ≤ 12.5 µM | ≤ 12.5 µM | > 12.5 µM | 10 to 25 µM | ≤ 12.5 µM | ≤ 12.5 µM | 113 to 116 °C | ≤ 5 µM
3 | COc1cc2c(Oc3ccc(NS(=O)(=O)c4cccc(-c5ccccc5)c4)cc3F)ccnc2cc1OCCCN1CCCCC1 [Example 8, Biphenyl-3-sulfonic acid {3-fluoro-4-[6-methoxy-7-(3-piperidin-1-yl-propoxy)-quinolin-4-loxy]-phenyl}-amide] | 12.5 to 50 µM | 12.5 to 50 µM | ≤ 12.5 µM |  | ≤ 12.5 µM | ≤ 12.5 µM |  | ≤ 12.5 µM | ≤ 12.5 µM | ≤ 12.5 µM | ≤ 12.5 µM | 12.5 to 50 µM | ≤ 12.5 µM | ≤ 12.5 µM | ≤ 12.5 µM | ≤ 10 µM | ≤ 12.5 µM | ≤ 12.5 µM | 113 to 115 °C | ≤ 5 µM
4 | COc1cc2c(Oc3ccc(NS(=O)(=O)c4cccc(Oc5ccccc5)c4)cc3F)ccnc2cc1OCCCN1CCCCC1 [Example 10, N-{3-Fluoro-4-[6-methoxy-7-(3-piperidin-1-yl-propoxy)-quinolin-4-yloxy]-phenyl}-3-phenoxy-benzenesulfonamide] | 12.5 to 50 µM | 12.5 to 50 µM | ≤ 12.5 µM |  | ≤ 12.5 µM | ≤ 12.5 µM |  | ≤ 12.5 µM | ≤ 12.5 µM | ≤ 12.5 µM | ≤ 12.5 µM | ≤ 12.5 µM | ≤ 12.5 µM | ≤ 12.5 µM | ≤ 12.5 µM | ≤ 10 µM | ≤ 12.5 µM | ≤ 12.5 µM | 146 to 147 °C | ≤ 5 µM
